For one test, the system named is male Sprague-Dawley rats. The test is described as follows: Anti-hyperalgesia in the Complete Freund's Adjuvant (CFA) model of inflammatory pain. Format: in vivo. Particulars: PO dose 3 mg/kg; 1 hr after dosing; thermal hyperalgesia; rat; read-out: % MPE (1 hr), paw withdrawal latency after CFA injection. Here is the method: The anti-hyperalgesic effects of test compounds in the Complete Freund's Adjuvant (CFA) model of inflammatory pain were determined essentially as described in U.S. Pat. No. 7,517,874 using male Sprague-Dawley rats (Hsd: Sprague-Dawley®SD®, Harlan, Indianapolis, Ind.) weighing 200-300 grams.
Test compounds were prepared in a Cremaphor vehicle mixture of 1:1:18 CremophorEL:ethanol:water. Cremophor was obtained from Sigma Chemical (St. Louis, Mo.). The vehicle mixture or vehicle mixture plus test compound were each administered orally.
Assessment of thermal hyperalgesia: Baseline and post-treatment paw withdrawal latencies to a noxious thermal stimulus were measured using a plantar test apparatus (Ugo Basile; obtained from Stoelting, Wood Dale, Ill.). This apparatus generates an infrared heat source that is linearly increasing in intensity. To avoid tissue damage, the power to the heat source was cut off after 20 seconds.
Paw withdrawal latency is defined as the time required for the rat to flick its paw away from the thermal stimulus. Ibuprofen (100 mg/kg, p.o.) was used as the positive control. Paw withdrawal latencies (in seconds) were measured before (naïve paw latency, L1) and 24 hr following (CFA-inflamed paw latency, L2) a single intraplantar injection of 0.1 mL CFA (Sigma-Aldrich, cat F5881, Mycobacterium tuberculosis 1 mg/ml).
Test compounds were administered orally 23 hours following CFA injection; i.e., 1 hour prior to thermal assessment (compound treated CFA-inflamed paw latency, L3). The mean paw withdrawal latency and standard error of the mean (SEM) was determined for the injured paws for each treatment group.
Data were expressed as percent maximum […] effect (% MPE) defined as the percentage of restoration of latency of test compound-treated CFA inflamed paw as compared to the naïve paw latency.

Test [1] deals with human CB1 receptor (hCB1) (Homo sapiens, UniProt P21554). Briefly: cAMP assay at human CB1 receptor. Format: cell-based. Particulars: hCB1R; maximum measurable range 30 μM; read-out: EC50 (Potency at Human CB1 determined by cAMP Assay). The essentials:
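Changes in intracellular cAMP measured by TR-FRET (665/615 nm) in forskolin-stimulated cells; cAMP read from a concurrent standard curve. Values normalised between forskolin and forskolin plus 1 μM CP55,940 wells. EC50 and intrinsic activity relative to CP55,940 from four-parameter nonlinear regression.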

The target of test [2] is human CB2 receptor (hCB2) (Homo sapiens, UniProt P34972). Briefly: cAMP assay at human CB2 receptor. The format is cell-based. The note with it: hCB2R, maximum measurable range 30 μM. The essentials:
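Values expressed as percent of the window between forskolin-stimulated wells and forskolin plus 1 μM CP55,940 wells.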

The next test deals with Rat L5/L6 SNL model. The test is described as follows: Spinal nerve ligation (SNL) model of chronic neuropathic pain. The note with it: two-way repeated measurement ANOVA, Bonferroni post-tests. The format is in vivo. The procedure: The SNL model (Kim and Chung, 1992, Pain 50 (3):355-63) was used to induce chronic neuropathic pain in rats. Rats were anesthetized with isoflurane, the left L5 transverse process was removed, and the L5 and L6 spinal nerves were tightly ligated with 6-0 silk suture. The wound was then closed with internal sutures and external staples. Following at least seven days post SNL, baseline, post-injury and post-treatment values for non-noxious mechanical sensitivity were evaluated using eight Semmes-Weinstein filaments (Stoelting, Wood Dale, Ill., USA) with varying stiffness (0.4, 0.7, 1.2, 2.0, 3.6, 5.5, 8.5, and 15 g) according to the up-down method (Chaplan et al., 1994, J. Neurosci. Meth., 53 (1):55-63). Animals were placed on a perforated metallic platform and allowed to acclimate to their surroundings for a minimum of thirty minutes before testing.
Rat L5/L6 SNL model (n=6/group; mean±sem). Sensitivity to non-noxious mechanical stimuli was tested before and at various time points following oral administration of compound (36). The mean and standard error of the mean (SEM) were determined for the injured paw in each treatment group. Since this stimulus is normally not considered painful, significant injury-induced increases in responsiveness in this test are interpreted as a measure of mechanical allodynia.

Where [3] appears, read: EC50 (Potency at Human CB2 determined by cAMP Assay).
[4] abbreviates: read-out: EC50 (Potency at Human CB2 determined by cAMP Assay).

Read-outs that look alike come from different tables or passages of the source.

Usually EC50 stands for the midpoint of the concentration-response curve.

Sequence of human CB2 receptor (hCB2) (P34972 whole entry): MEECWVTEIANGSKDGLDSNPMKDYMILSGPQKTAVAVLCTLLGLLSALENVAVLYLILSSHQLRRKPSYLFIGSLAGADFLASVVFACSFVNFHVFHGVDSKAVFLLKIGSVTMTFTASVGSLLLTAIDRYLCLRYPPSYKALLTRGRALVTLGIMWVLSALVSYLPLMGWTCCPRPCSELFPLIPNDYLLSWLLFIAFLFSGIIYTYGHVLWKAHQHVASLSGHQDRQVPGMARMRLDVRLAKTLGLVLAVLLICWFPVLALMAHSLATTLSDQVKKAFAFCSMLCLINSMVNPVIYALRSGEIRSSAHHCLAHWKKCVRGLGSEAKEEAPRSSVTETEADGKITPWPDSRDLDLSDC
Sequence of human CB1 receptor (hCB1) (P21554 whole entry): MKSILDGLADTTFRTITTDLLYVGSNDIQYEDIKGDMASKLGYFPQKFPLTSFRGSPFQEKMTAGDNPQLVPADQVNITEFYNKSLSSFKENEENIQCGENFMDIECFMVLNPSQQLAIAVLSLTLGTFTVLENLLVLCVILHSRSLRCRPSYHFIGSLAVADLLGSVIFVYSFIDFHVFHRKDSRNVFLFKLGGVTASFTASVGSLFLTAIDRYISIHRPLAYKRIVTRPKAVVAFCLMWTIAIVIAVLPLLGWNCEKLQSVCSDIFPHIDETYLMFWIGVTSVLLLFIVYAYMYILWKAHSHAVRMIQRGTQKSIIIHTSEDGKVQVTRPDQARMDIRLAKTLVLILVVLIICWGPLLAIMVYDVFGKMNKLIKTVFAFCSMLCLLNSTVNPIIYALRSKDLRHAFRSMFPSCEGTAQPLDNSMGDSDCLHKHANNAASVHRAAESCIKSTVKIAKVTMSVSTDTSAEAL

`CC(C)(C)[C@H](NC(=O)n1nc(-c2ccc(F)c(F)c2)c2c1COCC2)C(=O)NCCO` [Compound 95, (S)-3-(3,4-difluorophenyl)-N-(1-(2-hydroxyethylamino)-3,3-dimethyl-1-oxobutan-2-yl)-4,5-dihydropyrano[3,4-c]pyrazole-1(7H)-carboxamide]: the inhibition in vivo at 3 mg/kg in the test with male Sprague-Dawley rats is 41%. Further, the EC50 in test [1] and in test [2] (setting [3]) was below 1 µM each time.
For `CC(C)(C)[C@H](NC(=O)n1nc(-c2ccc(F)c(F)c2)c2c1CCOC2)C(N)=O` [Compound 99, (S)—N-(1-amino-3,3-dimethyl-1-oxobutan-2-yl)-3-(3,4-difluorophenyl)-6,7-dihydropyrano[4,3-c]pyrazole-1(4H)-carboxamide], the inhibition in vivo at 3 mg/kg with male Sprague-Dawley rats was 68%. Further, the EC50 was below 1 µM in test [1] and above 1 µM in test [2] (setting [4]).
Turning to `CN1CCc2c(-c3cc(F)ccc3F)nn(C(=O)N[C@H](C(=O)NCCO)C(C)(C)C)c2C1` [Compound 93, (S)-3-(2,5-difluorophenyl)-N-(1-(2-hydroxyethylamino)-3,3-dimethyl-1-oxobutan-2-yl)-6-methyl-4,5,6,7-tetrahydro-1H-pyrazolo[3,4-c]pyridine-1-carboxamide], in the test on male Sprague-Dawley rats, the inhibition in vivo at 3 mg/kg was determined as 28%. Besides, the EC50 in test [1] and in test [2] (setting [3]) was below 1 µM each time.
Regarding `CC(C)(C)[C@H](NC(=O)n1nc(-c2ccc(F)c(F)c2)c2c1CCOC2)C(=O)NCCO` [Compound 36, (S)—N-(1-(2-hydroxyethylamino)-3,3-dimethyl-1-oxobutan-2-yl)-3-(3,4-difluorophenyl)-6,7-dihydropyrano[4,3-c]pyrazole-1(4H)-carboxamide], the inhibition in vivo at 3 mg/kg in the test with male Sprague-Dawley rats was 44%. The “Sensitivity to non-noxious mechanical stimuli, significance vs. vehicle-controls” value is “significant to p<0.05 vs. vehicle-controls” in the test with Rat L5/L6 SNL model (3 mg/kg oral), “significant to p<0.001 vs. vehicle-controls” with Rat L5/L6 SNL model (10 mg/kg oral) and “significant to p<0.001 vs. vehicle-controls” in the test on Rat L5/L6 SNL model (30 mg/kg oral). Also, the EC50 in test [1] and in test [2] (setting [3]) was below 1 µM each time.
As to `CN1CCCc2c1c(-c1ccc(F)c(F)c1)nn2C(=O)N[C@H](C(=O)NCCO)C(C)(C)C` [Compound 91, (S)-3-(3,4-difluorophenyl)-N-(1-(2-hydroxyethylamino)-3,3-dimethyl-1-oxobutan-2-yl)-4-methyl-4,5,6,7-tetrahydro-1H-pyrazolo[4,3-b]pyridine-1-carboxamide], the inhibition in vivo at 3 mg/kg in the test on male Sprague-Dawley rats turned out to be 47%. The concentration for a half-maximal effect (EC50) in test [1] and in test [2] (setting [4]) was below 1 µM throughout.
`CC(C)(C)[C@H](NC(=O)n1nc(-c2cc(F)ccc2F)c2c1CCOC2)C(=O)NCCO` [Compound 87, (S)-3-(2,5-difluorophenyl)-N-(1-(2-hydroxyethylamino)-3,3-dimethyl-1-oxobutan-2-yl)-6,7-dihydropyrano[4,3-c]pyrazole-1(4H)-carboxamide]: the inhibition in vivo at 3 mg/kg with male Sprague-Dawley rats came to 50%. Moreover, the EC50 in test [1] and in test [2] (setting [3]) was below 1 µM each time.
With `CNC(=O)[C@@H](NC(=O)n1nc(-c2ccc(F)c(F)c2)c2c1CCCN2CCO)C(C)(C)C` [Compound 101, (S)-3-(3,4-difluorophenyl)-N-(3,3-dimethyl-1-(methylamino)-1-oxobutan-2-yl)-4-(2-hydroxyethyl)-4,5,6,7-tetrahydro-1H-pyrazolo[4,3-b]pyridine-1-carboxamide], the inhibition in vivo at 3 mg/kg in the test on male Sprague-Dawley rats turned out to be 28%. Besides, the EC50 in test [1] and in test [2] (setting [4]) was below 1 µM each time.
`CN1CCc2c(c(-c3ccc(F)c(F)c3)nn2C(=O)N[C@H](C(=O)NCCO)C(C)(C)C)C1` [Compound 98, (S)-3-(3,4-difluorophenyl)-N-(1-(2-hydroxyethylamino)-3,3-dimethyl-1-oxobutan-2-yl)-5-methyl-4,5,6,7-tetrahydro-1H-pyrazolo[4,3-c]pyridine-1-carboxamide]: the inhibition in vivo at 3 mg/kg in the test with male Sprague-Dawley rats stood at 36%. Besides, the EC50 in test [1] and in test [2] (setting [3]) was below 1 µM each time.
Turning to `CN1CCCc2c1c(-c1cc(F)ccc1F)nn2C(=O)N[C@H](C(=O)NCCO)C(C)(C)C` [Compound 92, (S)-3-(2,5-difluorophenyl)-N-(1-(2-hydroxyethylamino)-3,3-dimethyl-1-oxobutan-2-yl)-4-methyl-4,5,6,7-tetrahydro-1H-pyrazolo[4,3-b]pyridine-1-carboxamide], the inhibition in vivo at 3 mg/kg in the test with male Sprague-Dawley rats amounted to 23%. For the same compound, the EC50 in test [1] and in test [2] (setting [3]) was below 1 µM in each case.
Regarding `CC(C)(C)[C@H](NC(=O)n1nc(-c2ccc(Cl)cc2F)c2c1CCOC2)C(=O)NCCO` [Compound 88, (S)-3-(4-chloro-2-fluorophenyl)-N-(1-(2-hydroxyethylamino)-3,3-dimethyl-1-oxobutan-2-yl)-6,7-dihydropyrano[4,3-c]pyrazole-1(4H)-carboxamide], the inhibition in vivo at 3 mg/kg in the test with male Sprague-Dawley rats is 47%. The EC50 in test [1] and in test [2] (setting [4]) was below 1 µM throughout.
With `CN1CCc2c(-c3ccc(F)c(F)c3)nn(C(=O)N[C@H](C(=O)NCCO)C(C)(C)C)c2C1` [Compound 90, (S)-3-(3,4-difluorophenyl)-N-(1-(2-hydroxyethylamino)-3,3-dimethyl-1-oxobutan-2-yl)-6-methyl-4,5,6,7-tetrahydro-1H-pyrazolo[3,4-c]pyridine-1-carboxamide], in the test on male Sprague-Dawley rats, the inhibition in vivo at 3 mg/kg stood at 25%. For the same compound, the EC50 was below 1 µM in test [1] and above 1 µM in test [2] (setting [4]).
Consider `CN1CCc2c(-c3cc(F)c(F)cc3F)nn(C(=O)N[C@H](C(=O)NCCO)C(C)(C)C)c2C1` [Compound 89, (S)—N-(1-(2-hydroxyethylamino)-3,3-dimethyl-1-oxobutan-2-yl)-6-methyl-3-(2,4,5-trifluorophenyl)-4,5,6,7-tetrahydro-1H-pyrazolo[3,4-c]pyridine-1-carboxamide], for which the inhibition in vivo at 3 mg/kg in the test on male Sprague-Dawley rats is 52%. The half-maximal effective concentration (EC50) in test [1] and in test [2] (setting [3]) was below 1 µM throughout.
`CC(C)(C)[C@H](NC(=O)n1nc(-c2cc(Cl)ccc2F)c2c1COCC2)C(=O)NCCO` [Compound 96, (S)-3-(5-chloro-2-fluorophenyl)-N-(1-(2-hydroxyethylamino)-3,3-dimethyl-1-oxobutan-2-yl)-4,5-dihydropyrano[3,4-c]pyrazole-1(7H)-carboxamide]: the inhibition in vivo at 3 mg/kg in the test on male Sprague-Dawley rats was 52%. The EC50 in test [1] and in test [2] (setting [3]) was below 1 µM each time.
As to `CC(C)(C)[C@H](NC(=O)n1nc(-c2cc(Cl)ccc2F)c2c1CCOC2)C(=O)NCCO` [Compound 86, (S)-3-(5-chloro-2-fluorophenyl)-N-(1-(2-hydroxyethylamino)-3,3-dimethyl-1-oxobutan-2-yl)-6,7-dihydropyrano[4,3-c]pyrazole-1(4H)-carboxamide], the inhibition in vivo at 3 mg/kg with male Sprague-Dawley rats came out at 27%. Besides, the EC50 in test [1] and in test [2] (setting [3]) was below 1 µM each time.
As for `CN1CCCc2c1c(-c1cc(Cl)ccc1F)nn2C(=O)N[C@H](C(=O)NCCO)C(C)(C)C` [Compound 94, (S)-3-(5-chloro-2-fluorophenyl)-N-(1-(2-hydroxyethylamino)-3,3-dimethyl-1-oxobutan-2-yl)-4-methyl-4,5,6,7-tetrahydro-1H-pyrazolo[4,3-b]pyridine-1-carboxamide], the inhibition in vivo at 3 mg/kg with male Sprague-Dawley rats turned out to be 27%. Besides, the concentration giving a half-maximal response (EC50) in test [1] and in test [2] (setting [3]) was below 1 µM each time.
